Where a name gives a salt, the structure may show the parent alone. Read-outs that look alike come from different tables or passages of the source.

The subject of assay [1] is voltage sensitive calcium channels. The experiment in a line: Potentiation of Calcium Influx across the Membrane (Quin 2 fluorescence). The class given is cell-based, murine. The conditions noted are these: NG108-15 (NGI08-15 [sic]) cells, KCl 50 mM depolarization, 37° C, percent enhancement over potassium chloride stimulation. As to the method:
This test system was developed to evaluate the relative ability of compounds to potentiate calcium influx into cells via voltage sensitive calcium channels. The technique employs a high calcium affinity fluorescent dye to monitor changes in intracellular free calcium concentrations. The cells are incubated with a protected non-fluorescent form of the calcium sensitive dye. This compound permeates the cell wall and enters the cell. There it is transformed by enzymes into the fluorescent dye Quin 2 which cannot leave the cell Quin 2 has a high affinity for calcium ions and when calcium is bound to the dye, the complex fluoresces, the intensity of the fluorescence being proportional to the concentration of calcium ions. Voltage sensitive calcium channels are activated by the addition of potassium chloride to the media and calcium ion influx occurs. The increase in fluorescence is measured, giving a relative measure of calcium influx, the control value. In a separate cuvette, both potassium chloride and the test compound are administered to the cells and the fluorescence measured. A calcium agonist should increase influx of calcium into the cells and therefore an increase in the fluorescence. The percent stimulation above control is obtained from the increase in fluorescence.
Differentiated murine neuronal (neuroblastoma x glioma) hybrid cells (NGI08-15) which contain an abundance of voltage dependant calcium channels were used as a source of tissue for testing these compounds.
Briefly, NGI08-15 cells were cultured in 10% CO2 at 37° C. in Dulbecco's modified Eagle's medium (DMEM) supplemented with glutamine (1.0 mM). fetal bovine serum (FBS; 10%). and hypoxanthine (100 μM), aminopterin (1.0 μM). and thymidine (20 μM). Differentiation was induced by treatment with dibutyl cyclic AMP (4 days, 1.0 mM) [L. Noronha-Blob, C. […] Dispersed cells (5×10^6 cells/mL) were incubated with quin 2 acetoxymethyl ester (quin 2-AM, the calcium specific dye) [100 μM. in dimethyl sulfoxide (DMSO)] for 60 minutes at 37° C. The control suspensions received only DMSO. Cells were then diluted in ice-cold media, centrifuged and washed twice (1,500×g, 3 minutes) in ice-cold HEPES buffer (composition: 130 mM NaCl, 5.0 mM KCl, 6.0 mM glucose, 1.0 mM MgCl2, 1.0 mM CaCl2, and 20 mM HEPES, pH 7 4).
The change in fluorescence was calculated from the difference between final and initial values. The results were expressed as a percent enhancement over potassium chloride stimulation (control).

Assay [2] has as its system smooth muscle (longitudinal muscle of ileum). The experiment in a line: Enhancement of Calcium Ion Evoked Smooth Muscle Contractility (isolated ileum longitudinal muscle). The conditions noted are these: guinea pig ileum; for minimal effective concentration: lowest concentration that produced enhancement of calcium evoked contraction, 37° C, read-out: Threshold for Enhancement; for Concentration at Maximum Enhancement: concentration of compound that produced the maximum enhancement; for Maximum Enhancement (% maximum contraction): 6 min. An excerpt:
This test is a measure of the ability of test compounds to enhance muscle contraction caused by calcium ions. A sample of muscle was placed under tension in a device to measure its length and contracted by addition of potassium chloride (to activate the calcium channels) followed by addition of a calcium ion solution. The addition of a calcium agonist should cause the influx of additional calcium ions and thereby cause further contraction of the muscle. The lowest concentration of test compound necessary to evoke this additional contraction was measured, as were the maximum contraction obtained and the concentration at which it was reached
The ileum of male albino guinea pigs were cut into 3-4 cm segments. The longitudinal muscle, with myenteric plexus attached, was separated from the circular muscle. […] Each preparation was suspended under resting tension of 0.3 g. The tissues were switched to calcium free Tryodes solution for 24 minutes. with complete replacement of the solution every four minutes. Potassium chloride was then added to produce a bath concentration of […], and calcium solutions were cumulatively added to increase the bath calcium ion concentration to 0.2-8.0 mM. The tissues were re-equilibrated in normal Tyrodes and then calcium free Tyrodes. Enhancement of calcium evoked contractions in the presence of drug were determined by repeating the cumulative addition procedure after the tissues were exposed to the drug for six minutes. Responses were expressed relative to the maximum contraction elicited by calcium ion in the absence of the drug.

The conditions of assay [3]: in words; cited from earlier work.
In assay [4] the test system is extracellular calcium ions. The conditions noted are these: in words, dose-dependent; cited from earlier work.
Assay [5] deals with isolated guinea pig atrium. Conditions: cited from earlier work.
The test system of assay [6] is isolated rabbit aortic strips. Conditions: cited from earlier work.
The subject of assay [7] is rabbit aortic rings. Conditions: cited from earlier work.
Assay [8] concerns radioactive calcium uptake. Conditions: cited from earlier work.
Where [9] appears, read: increase above control as percent of maximum control calcium evoked contraction, 6 min drug exposure.

As usually defined, the Emax is the greatest response seen or fitted, relative to the assay's reference. Regarding `COC(=O)C1=C(C)NC(C)=C([N+](=O)[O-])C1c1ccccc1C(F)(F)F` (centres unmarked) [BAY K 8644, Methyl 1,4-dihydro-2,6-dimethyl-5-nitro-4-(2-trifluoromethylphenyl)-3-pyridine carboxylate], the “% Stimulation Above Control” value in assay [1] is 38%. Moreover, the Emax in assay [2] (Cavia porcellus, 0.1 h, increase above control as percent of maximum control calcium evoked contraction, 6 min drug exposure) came to 38%. Besides, in assay [2] (Cavia porcellus, 0.1 h, 6 min drug exposure), the minimal effective concentration was 10 nM. In assay [2], the “Concentration at Maximum Enhancement” value was determined as 100 nM. The inotropic effect entry in assay [3] was “potent positive inotropic effects”.
As to `CCOC(=O)C1=C(C)NC2=C(C(=O)OC2)C1c1ccccc1OC(F)F` (centres unmarked) [CGP 28392, ethyl 4-[2-(difluoromethoxy)phenyl]-1,4,5,7-tetrahydro-2-methyl-5-oxofuro[3,4-b]pyridine-3-carboxylate], the “concentration of extracellular calcium ions” value in assay [4] is “increase in a dose-dependent manner the concentration of extracellular calcium ions”.
With `CC1=C(C(=O)Nc2ccccc2)C(c2ccccc2Cl)C(C(=O)OCCc2ccccn2)=C(C)N1` (centres unmarked) [YC-170], in assay [5] (isolated guinea pig atrium), the “inotropic effect in atrium” value is listed as “positive inotropic effect”. Further, the “contractile tension in atrium” value in assay [5] (partially depolarized with a low concentration of potassium) is “decrease in contractile tension”. Moreover, the “contraction of aortic strips” value in assay [6] (isolated rabbit aortic strips) is “induced contraction”. Further, the “relaxant effect on aorta” value in assay [6] (precontracted by a high concentration of potassium) is given as “relaxant effect”.
Regarding `CC1=C(C(=O)OC2CN3CCC2CC3)C(c2cccc([N+](=O)[O-])c2)C([N+](=O)[O-])=C(C)N1` (single isomer, unassigned) [(-a, -b), (-a, -b)-1-Azabicyclo[2.2.2]oct-3-yl 1,4-Dihydro-2,6-dimethyl-4-(3-nitrophenyl)-5-nitropyridine-3-carboxylate fumarate], the “% Stimulation Above Control” value in assay [1] worked out at 10%. The “Concentration at Maximum Enhancement” value in assay [2] is 10 nM. In addition, the “Maximum Enhancement (% maximum contraction)” value in assay [2] (setting [9]) was determined as 18%. In addition, the minimal effective concentration in assay [2] (6 min drug exposure) was determined as 10 nM.
`CC1=C(C(=O)OC(C)C)[C@H](c2cccc3nonc23)C([N+](=O)[O-])=C(C)N1` [S enantiomer]: in assay [7] (single enantiomer, in words), the “concentration-response curve for depolarization-induced contraction” value is reported as “shifted the concentration-response curve for depolarization-induced contraction in an almost parallel fashion to the left” and the contraction entry is on record as “enhanced contraction”. For the same compound, the radioactive calcium uptake entry in assay [8] (single enantiomer, in words) is recorded as “enhanced radioactive calcium uptake dependently at all levels of depolarization”.
With `CC1=C(C(=O)OC2CN3CCC2CC3)C(c2cccc([N+](=O)[O-])c2)C([N+](=O)[O-])=C(C)N1` (single isomer, unassigned) [(-a, +b), (-a, +b)-1-Azabicyclo[2.2.2]oct-yl 1.4-Dihydro-2,6-dimethyl-4-(3-nitrophenyl)-5-nitropyridine-3-carboxylate fumarate], the “% Stimulation Above Control” value in assay [1] is on record as 25%. Moreover, in assay [2], the “Concentration at Maximum Enhancement” value stood at 1000 nM. For the same compound, in assay [2] (setting [9]), the “Maximum Enhancement (% maximum contraction)” value was determined as 13%. Moreover, the minimal effective concentration in assay [2] (6 min drug exposure) came out at 100 nM.
As to `CC1=C(C(=O)OC2CN3CCC2CC3)C(c2cccc([N+](=O)[O-])c2)C([N+](=O)[O-])=C(C)N1` (single isomer, unassigned) [(+a, +b), (+a, +b)-1-Azabicyclo[2.2.2]oct-3-yl 1,4-Dihydro-2,6-dimethyl-4-(3-nitrophenyl)-5-nitropyridine-3-carboxylate fumarate], the “% Stimulation Above Control” value in assay [1] stood at 20%. In addition, the “Concentration at Maximum Enhancement” value in assay [2] is 100 nM. For the same compound, the “Maximum Enhancement (% maximum contraction)” value in assay [2] (setting [9]) turned out to be 11%. In addition, the minimal effective concentration in assay [2] (6 min drug exposure) is reported as 10 nM.
For the compound `CC1=C(C(=O)OC(C)C)C(c2cccc3nonc23)C([N+](=O)[O-])=C(C)N1` (racemic) [Example 202-792, 2-propyl 4-(4-benzofurazanyl)-1,4-dihydro-2,6-dimethyl-5-nitropyridine-3-carboxylate], the “contraction of aortic rings” value in assay [7] (high levels of depolarization) is given as “inhibited contraction”; in assay [7] (low levels of depolarization), “enhanced contractions of rabbit aortic rings at low levels of depolarization”. In assay [8] (high levels of depolarization), the radioactive calcium uptake entry was “inhibited contraction and radioactive calcium uptake at high levels of depolarization”.
In the case of `CC1=C(C(=O)OC2CN3CCC2CC3)C(c2cccc([N+](=O)[O-])c2)C([N+](=O)[O-])=C(C)N1` (single isomer, unassigned) [(+a, -b), (+a, -b)-1-Azabicyclo[2.2.2]oct-3-yl 1,4-Dihydro-2,6-dimethyl-4-(3-nitrophenyl)-5-nitropyridine-3-carboxylate fumarate], the “% Stimulation Above Control” value in assay [1] amounted to 31%. Further, the “Concentration at Maximum Enhancement” value in assay [2] is listed as 10 nM. Besides, in assay [2] (setting [9]), the “Maximum Enhancement (% maximum contraction)” value worked out at 15%. In assay [2] (6 min drug exposure), the minimal effective concentration was 10 nM.
As to `CC1=C(C(=O)OC(C)C)[C@@H](c2cccc3nonc23)C([N+](=O)[O-])=C(C)N1` [R enantiomer], in assay [7] (single enantiomer, in words), the contraction entry was “inhibited contraction” and the stimulant activity entry was “no stimulant activity”. In assay [8] (single enantiomer, in words), the radioactive calcium uptake entry is “inhibited contraction and radioactive calcium uptake”.

Values taken from patent US4975437A, “Isomers of 1-azabicyclo(2.2.2)oct-3-yl 1,4-dihydro-2,6-dimethyl-4-(3-nitrophenyl)-5-nitropyridine-3-carboxylate” (Marion Laboratories, Inc., priority 1989, dated 1990).
